Experimental data as given in patent publication US20260001875A1, “AMINOPYRIMIDINYL DERIVATIVES FOR THE TREATMENT OF PARKINSON'S DISEASE” (UNIVERSITY OF DUNDEE, priority 2022, published 2026).

Assays:
Rab10 pThr73 [1] = assay: Rab10 Thr73 dephosphorylation (immunoblot) in WT MEFs; type: cell-based, mouse; conditions: Mus musculus, read-out: pRab10 inhibited in WT MEFs
Protocol: (§1) Western blot degradation assays for the LRRK2 protacs were performed with WT and PD-associated LRRK2 [G2019S] mouse embryonic fibroblasts (MEFs). The second-generation PROTACs were tested in parallel with the first generation PROTACs SD75, SD82, and SD100. The compounds were tested at 33 nM or […] concentrations for 4 hours or 24 hours, running two biological replicates per condition and achieving quantifications representative of both replicates. Analysis by quantitative immunoblotting was performed with readouts of the total LRRK2 (antibody recognizes epitope in C-terminus of protein), Rab10 pThr73 (physiological substrate) and LRRK2 pSer935 (biomarker phosphorylation site).
(§2) Primary MEFs were generated as described in a previous study (Wiggin et al., Mol. Cell Biol. 2002 April; 22(8):2871-81.). Briefly, the uterine horn was collected from adult female mice at day E12.5 and transferred to a 10 cm tissue culture dish containing cold PBS. Two forceps were used to tear the yolk sacs to isolate each embryo. Forceps were cleaned thoroughly with 70% ethanol between each embryo isolation. The embryos were culled, and a tissue piece was collected in a PCR tube for genotyping. The red tissue of the embryo, which grows to become the heart and liver, was removed. The remainder of the embryo was minced with a scalpel blade and incubated with 7.5 ml trypsin-EDTA solution for 10 minutes in a 37° C. tissue culture CO2 incubator. The dish was removed from the incubator and checked under a light microscope for single cells. 7.5 ml complete media was added to the trypsinised cells, and the cell suspension was transferred to a 15 ml Falcon tube, centrifuged at 1200 rpm for 5 minutes at room temperature. The trypsin was aspirated, the cell pellet was resuspended in 5 ml fresh complete media, and the cell suspension was plated in a 60 mm tissue culture dish and incubated in a 37° C., 5% CO2 tissue culture incubator. The MEFs at this stage were considered as passage 0 and were passaged and expanded for experimental use once the genotype was confirmed by allelic sequencing and immunoblotting. MEFs were cultured in Dulbecco's modified Eagle medium (DMEM) containing 10% (v/v) fetal bovine serum (FBS), 2 mM L-glutamine, 100 U/ml penicillin, and 100 μg/ml streptomycin supplemented with 1× non-essential amino acids and 1 mM sodium pyruvate.
Culturing and passaging of adherent cell lines were carried out using aseptic technique in CL1 or CL2 (for PBMC isolation) biological safety cabinets. All cells were incubated in a 37° C. incubator with 5% CO2. Cell lines were regularly tested for mycoplasma contamination. For western blot assay, the cells were seeded in 6-well plates. After treating with testing compounds at indicated concentrations and time period, the media was removed and the cells were washed with PBS and lysed in 100 μl ice-cold complete lysis buffer containing 50 mM Tris-HCl pH 7.4, 1 mM EGTA, 10 mM 2-glycerophosphate, 50 mM sodium fluoride, 5 mM sodium pyrophosphate, 270 mM sucrose, supplemented with 1 μg/ml microcystin-LR, 1 mM sodium orthovanadate, complete EDTA-free protease inhibitor cocktail (Roche) and 1% (v/v) Triton X-100. The cells were immediately placed on ice and were scraped and collected into 1.5 ml Eppendorf tubes. Cell lysates were incubated on ice for 10 minutes prior to centrifugation at 15,000 g at 4° C. for 15 minutes. The cell pellet was discarded, and supernatant was collected for analysis by quantitative immunoblotting. For long term storage, the supernatant was flash frozen and stored at −80° C. Protein concentrations of cell lysates were determined using the Bradford assay.
Cell lysates containing a quarter of a volume of 4× NuPAGE LDS sample buffer (NP0007) supplemented with 5% β-mercaptoethanol, were heated at 95° C. for 5 minutes. […]

Rab10 pThr73 [2] = assay: Rab10 Thr73 dephosphorylation (immunoblot) in LRRK2^G2019S MEFs; type: cell-based; conditions: Mus musculus, read-out: pRab10 inhibited in LRRK2^G2019S MEFs
Protocol: as §1, with “The” for “Western blot degradation assays for the LRRK2 protacs were performed with WT and PD-associated LRRK2 [G2019S] mouse embryonic fibroblasts (MEFs). The”
as §2
Culturing and passaging of adherent cell lines were carried out using aseptic technique in CL1 or CL2 (for PBMC isolation) biological safety cabinets. All cells were incubated in a 37° C. incubator with 5% CO2. Cell lines were regularly tested for mycoplasma contamination. For western blot assay, the cells were seeded in 6-well plates. […] The cells were immediately placed on ice and were scraped and collected into 1.5 ml Eppendorf tubes. Cell lysates were incubated on ice for 10 minutes prior to centrifugation at 15,000 g at 4° C. for 15 minutes. The cell pellet was discarded, and supernatant was collected for analysis by quantitative immunoblotting. For long term storage, the supernatant was flash frozen and stored at −80° C. Protein concentrations of cell lysates were determined using the Bradford assay.
Cell lysates containing a quarter of a volume of 4× NuPAGE LDS sample buffer (NP0007) supplemented with 5% β-mercaptoethanol, were heated at 95° C. for 5 minutes. 15 to 20 μg of samples were loaded onto pre-cast 4-12% Bis-Tris midi 20W or 26W gels (Thermofisher Scientific®, Cat #WG1402BOX or WG1403BOX) and resolved at 130 V for 2 hours with NuPAGE MOPS SDS running buffer (Thermofisher Scientific® Cat #NP0001-02). Proteins were electrophoretically transferred onto a 0.45 μm nitrocellulose membrane (GE Healthcare, Amersham Protran® Supported 0.45 mm NC) at 90 V for 90 min on ice in transfer buffer (48 mM Tris base and 39 mM glycine supplemented with 20% methanol). The transferred membrane was blocked with 5% (w/v) skim milk powder dissolved in tris-buffered saline with tween (TBS-T) (50 mM Tris base, 150 mM sodium chloride (NaCl), 0.1% (v/v) Tween-20) at room temperature for 1 hour.

Rab10 pThr73 [3] = assay: as above; type: cell-based, mouse; conditions: Mus musculus, read-out: pRab10 inhibited in LRRK2^G2019S MEFs

SMILES	inhibition at 0.033 µM (Rab10 pThr73 [1]; 33 nM/4 h treatment) [%]	inhibition at 0.033 µM (Rab10 pThr73 [1]; 33 nM/24 h treatment) [%]	inhibition at 1 µM (Rab10 pThr73 [1]; 1 μM/4 h treatment) [%]	inhibition at 1 µM (Rab10 pThr73 [1]; 1 μM/24 h treatment) [%]	inhibition at 0.033 µM (Rab10 pThr73 [2]; 33 nM/4 h treatment) [%]	inhibition at 0.033 µM (Rab10 pThr73 [2]; 33 nM/24 h treatment) [%]	inhibition at 1 µM (Rab10 pThr73 [3]; 1 μM/4 h treatment) [%]	inhibition at 1 µM (Rab10 pThr73 [3]; 1 μM/24 h treatment) [%]
CNc1nc(Nc2ccc(C(=O)N3CCN(Cc4cccc(CSC(C)(C)[C@H](NC(=O)C5(F)CC5)C(=O)N5C[C@H](O)C[C@H]5C(=O)NCc5ccc(-c6scnc6C)cc5)c4)CC3)cc2OC)ncc1Cl [XL01111, (2S,4R)-1-((R)-3-((3-((4-(4-((5-chloro-4-(methylamino)pyrimidin-2-yl)amino)-3-methoxybenzoyl)piperazin-1-yl)methyl)benzyl)thio)-2-(1-fluorocyclopropane-1-carboxamido)-3-methylbutanoyl)-4-hydroxy-N-(4-(4-methylthiazol-5-yl)benzyl)pyrrolidine-2-carboxamide]	0 to 40	0 to 60	10 to 95	30 to 100	0 to 70	0 to 90	20 to 100	10 to 100
CNc1nc(Nc2ccc(C(=O)N3CCN(CCCSC(C)(C)[C@H](NC(=O)C4(F)CC4)C(=O)N4C[C@H](O)C[C@H]4C(=O)N[C@@H](C)c4ccc(-c5scnc5C)cc4)CC3)cc2OC)ncc1Cl [XL01118, (2S,4R)-1-((R)-3-((3-(4-(4-((5-chloro-4-(methylamino)pyrimidin-2-yl)amino)-3-methoxybenzoyl)piperazin-1-yl)propyl)thio)-2-(1-fluorocyclopropane-1-carboxamido)-3-methylbutanoyl)-4-hydroxy-N—((S)-1-(4-(4-methylthiazol-5-yl)phenyl)ethyl)pyrrolidine-2-carboxamide]	0 to 40	0 to 60	10 to 95	30 to 100	0 to 70	0 to 90	20 to 100	10 to 100
CNc1nc(Nc2ccc(C(=O)N3CCN(CCOCCOCCSC(C)(C)[C@H](NC(=O)C4(F)CC4)C(=O)N4C[C@H](O)C[C@H]4C(=O)N[C@@H](C)c4ccc(-c5scnc5C)cc4)CC3)cc2OC)ncc1Cl [XL01119, (2S,4R)-1-((R)-3-((2-(2-(2-(4-(4-((5-chloro-4-(methylamino)pyrimidin-2-yl)amino)-3-methoxybenzoyl)piperazin-1-yl)ethoxy)ethoxy)ethyl)thio)-2-(1-fluorocyclopropane-1-carboxamido)-3-methylbutanoyl)-4-hydroxy-N—((S)-1-(4-(4-methylthiazol-5-yl)phenyl)ethyl)pyrrolidine-2-carboxamide]	0 to 40	0 to 60	10 to 95	30 to 100	0 to 70	0 to 90	20 to 100	10 to 100
CNc1nc(Nc2ccc(C(=O)N3CCN(Cc4ccc(CSC(C)(C)[C@H](NC(=O)C5(F)CC5)C(=O)N5C[C@H](O)C[C@H]5C(=O)N[C@@H](C)c5ccc(-c6scnc6C)cc5)cc4)CC3)cc2OC)ncc1Cl [XL01120, (2S,4R)-1-((R)-3-((4-((4-(4-((5-chloro-4-(methylamino)pyrimidin-2-yl)amino)-3-methoxybenzoyl)piperazin-1-yl)methyl)benzyl)thio)-2-(1-fluorocyclopropane-1-carboxamido)-3-methylbutanoyl)-4-hydroxy-N—((S)-1-(4-(4-methylthiazol-5-yl)phenyl)ethyl)pyrrolidine-2-carboxamide]	0 to 40	0 to 60	10 to 95	30 to 100	0 to 70	0 to 90	20 to 100	10 to 100
CNc1nc(Nc2ccc(C(=O)N3CCN(Cc4ccc(CSC(C)(C)[C@H](NC(=O)C5(F)CC5)C(=O)N5C[C@H](O)C[C@H]5C(=O)NCc5ccc(-c6scnc6C)c(F)c5)cc4)CC3)cc2OC)ncc1Cl [XL01121, (2S,4R)-1-((R)-3-((4-((4-(4-((5-chloro-4-(methylamino)pyrimidin-2-yl)amino)-3-methoxybenzoyl)piperazin-1-yl)methyl)benzyl)thio)-2-(1-fluorocyclopropane-1-carboxamido)-3-methylbutanoyl)-N-(3-fluoro-4-(4-methylthiazol-5-yl)benzyl)-4-hydroxypyrrolidine-2-carboxamide]	0 to 40	0 to 60	10 to 95	30 to 100	0 to 70	0 to 90	20 to 100	10 to 100
CNc1nc(Nc2ccc(C(=O)N3CCN(CCCSC(C)(C)[C@H](NC(=O)C4(F)CC4)C(=O)N4C[C@H](O)C[C@H]4C(=O)NCc4ccc(-c5scnc5C)c(F)c4)CC3)cc2OC)ncc1Cl [XL01122, (2S,4R)-1-((R)-3-((3-(4-(4-((5-chloro-4-(methylamino)pyrimidin-2-yl)amino)-3-methoxybenzoyl)piperazin-1-yl)propyl)thio)-2-(1-fluorocyclopropane-1-carboxamido)-3-methylbutanoyl)-N-(3-fluoro-4-(4-methylthiazol-5-yl)benzyl)-4-hydroxypyrrolidine-2-carboxamide]	0 to 40	0 to 60	10 to 95	30 to 100	0 to 70	0 to 90	20 to 100	10 to 100
